We go through three compounds from ChEMBL document CHEMBL1132820, “DNA minor groove interactions and the biological activity of 2,5-bis” (Bioorg Med Chem Lett, 2000).

The subject of experiment [1] is Rattus norvegicus. The experiment is described as follows: Number of mean cysts/g of lung tissue observed at 0.9 uM/kg/day dose of compound tested in vivo against Pneumocystis carinii pneumonia infected rats. The experiment is classed as functional.
In experiment [2] the test system is Rattus norvegicus. In words: Number of mean cysts/g of lung tissue observed at 9-10 uM/kg/day dose of compound tested in vivo against Pneumocystis carinii pneumonia infected rats. Format: functional.

Regarding `N=C(NC1CCCC1)c1ccc(-c2ccc(-c3ccc(C(=N)NC4CCCC4)cc3)o2)cc1`, the PCP activity with Rattus norvegicus [1] is reported as 0.11 cysts g-1; in the experiment on Rattus norvegicus [2], 0.03 cysts g-1.
The like results for `N=C(NC1CCC1)c1ccc(-c2ccc(-c3ccc(C(=N)NC4CCC4)cc3)o2)cc1` were, in that order, 0.67 cysts g-1 and 0.05 cysts g-1.
Take `N=C(NC1CCCCC1)c1ccc(-c2ccc(-c3ccc(C(=N)NC4CCCCC4)cc3)o2)cc1`: the PCP activity stood at 26.2 cysts g-1 in the experiment on Rattus norvegicus [1] and 0.02 cysts g-1 in the experiment on Rattus norvegicus [2].
